US20140187548A1, “6 SUBSTITUTED IMIDAZOPYRAZINES FOR USE AS MPS-1 AND TKK INHIBITORS IN THE TREATMENT OF HYPERPROLIFERATIVE DISORDERS” (BAYER INTELLECTUAL PROPERTY GMBH, priority 2010, published 2014)
pIC50: −log10 of the molar value.

Target: T1, human kinase Mps-1 (Homo sapiens, UniProt P33981)
T1 construct: N-terminally GST-tagged human full length recombinant Mps-1 kinase; GST (N); purchased Invitrogen, Karslruhe, Germany PV4071
T1 sequence (P33981 1-857): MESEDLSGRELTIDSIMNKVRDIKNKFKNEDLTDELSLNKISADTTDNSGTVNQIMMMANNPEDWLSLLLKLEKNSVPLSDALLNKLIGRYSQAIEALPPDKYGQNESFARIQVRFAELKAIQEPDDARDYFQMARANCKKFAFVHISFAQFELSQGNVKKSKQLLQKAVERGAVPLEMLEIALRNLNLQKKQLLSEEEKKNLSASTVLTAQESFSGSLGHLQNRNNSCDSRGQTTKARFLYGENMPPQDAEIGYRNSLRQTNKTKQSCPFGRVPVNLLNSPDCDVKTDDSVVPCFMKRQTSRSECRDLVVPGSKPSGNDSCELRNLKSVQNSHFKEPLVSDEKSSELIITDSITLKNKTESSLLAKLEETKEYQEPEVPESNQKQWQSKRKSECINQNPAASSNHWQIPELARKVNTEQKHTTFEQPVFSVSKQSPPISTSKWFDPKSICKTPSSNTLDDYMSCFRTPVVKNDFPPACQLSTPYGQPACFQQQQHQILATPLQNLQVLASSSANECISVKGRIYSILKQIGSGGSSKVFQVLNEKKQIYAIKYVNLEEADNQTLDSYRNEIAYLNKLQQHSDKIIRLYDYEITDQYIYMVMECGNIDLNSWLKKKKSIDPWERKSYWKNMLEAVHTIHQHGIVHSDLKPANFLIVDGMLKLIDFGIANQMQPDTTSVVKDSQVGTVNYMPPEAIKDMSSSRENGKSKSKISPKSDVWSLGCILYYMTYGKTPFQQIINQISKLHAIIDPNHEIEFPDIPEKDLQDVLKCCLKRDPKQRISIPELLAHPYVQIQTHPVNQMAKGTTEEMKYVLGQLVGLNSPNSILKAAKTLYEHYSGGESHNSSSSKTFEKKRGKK
Experiment: Mps-1 kinase assay (TR-FRET)
Type: biochemical
Conditions: N-terminally GST-tagged human full length recombinant Mps-1; 10 μM ATP; 1 μM peptide substrate; 15 min pre-incubation; 60 min at 22° C.
Method in brief: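 TR-FRET read-out: after 1 h binding at 22° C, Eu-labelled anti-phospho-Ser/Thr antibody transfers to SA-XLent on the phosphorylated biotinylated peptide. The enzyme is GST-tagged full-length human Mps-1, typically about 1 nM final, in the linear range.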

| Compound | pIC50 |
| --- | --- |
| O=C(NC1CC1)c1ccc(-c2cnc3c(NCCC(F)(F)F)nc(-c4ccc(F)cc4)cn23)cc1F [Example 1-112, N-cyclopropyl-2-fluoro-4-{6-(4-fluorophenyl)-8-[(3,3,3-trifluoropropyl)amino]imidazo[1,2-a]pyrazin-3-yl}benzamide] | 8.59 |
| CN(C)c1ccc(-c2cn3c(-c4ccc(C(=O)NC5CC5)c(F)c4)cnc3c(NCCC(F)(F)F)n2)cc1 [Example 1-113, N-cyclopropyl-4-{6-[4-(dimethylamino)phenyl]-8-[(3,3,3-trifluoropropyl)amino]imidazo[1,2-a]pyrazin-3-yl}-2-fluoro-benzamide] | 7.95 |
| O=C(NC1CC1)c1ccc(-c2cnc3c(NCCC(F)(F)F)nc(-c4ccccc4CO)cn23)cc1F [Example 1-114, N-cyclopropyl-2-fluoro-4-{6-[2-(hydroxymethyl)phenyl]-8-[(3,3,3-tri-fluoropropyl)amino]imidazo[1,2-a]pyrazin-3-yl}benzamide] | 8.46 |
| CC(C)(O)CNc1nc(-c2ccc(F)cc2)cn2c(-c3ccc(C(=O)NC4CC4)c(F)c3)cnc12 [Example 1-115, N-cyclopropyl-2-fluoro-4-{6-(4-fluorophenyl)-8-[(2-hydroxy-2-methyl-propyl)amino]imidazo [1,2-a]pyrazin-3-yl} benzamide] | 8.27 |
| CC(C)(O)CNc1nc(-c2ccccc2CO)cn2c(-c3ccc(C(=O)NC4CC4)c(F)c3)cnc12 [Example 1-116, N-cyclopropyl-2-fluoro-4-{6-[2-(hydroxymethyl)phenyl]-8-[(2-hydroxy-2-methylpropyl)amino]imidazo[1,2-a]pyrazin-3-yl}benzamide] | 7.46 |
| CN(C)c1ccc(-c2cn3c(-c4ccc(C(=O)NC5CC5)c(F)c4)cnc3c(NCC3CCCO3)n2)cc1 (centres unmarked) [Example 1-117, N-cyclopropyl-4-{6-[4-(dimethylamino)phenyl]-8-[(tetrahydrofuran-2-ylmethyl)amino]imidazo [1,2-a]pyrazin-3-yl}-2-fluorobenzamide] | 7.54 |
| O=C(NC1CC1)c1ccc(-c2cnc3c(NCC4CCCO4)nc(-c4ccccc4CO)cn23)cc1F (centres unmarked) [Example 1-118, N-cyclopropyl-2-fluoro-4-{6-[2-(hydroxymethyl)phenyl]-8-[(tetrahydro-furan-2-ylmethyl)amino]imidazo[1,2-a]pyrazin-3-yl}benzamide] | 7.70 |
| Cn1nccc1CNc1nc(-c2ccc(F)cc2)cn2c(-c3ccc(C(=O)NC4CC4)c(F)c3)cnc12 [Example 1-119, N-cyclopropyl-2-fluoro-4-[6-(4-fluorophenyl)-8-{[(1-methyl-1H-pyrazol-5-yl)methyl]amino}imidazo[1,2-a]pyrazin-3-yl]benzamide] | 8.60 |
| CN(C)c1ccc(-c2cn3c(-c4ccc(C(=O)NC5CC5)c(F)c4)cnc3c(NCc3ccnn3C)n2)cc1 [Example 1-120, N-cyclopropyl-4-(6-[4-(dimethylamino)phenyl]-8-{[(1-methyl-1H-pyrazol-5-yl)methyl]amino}imidazo[1,2-a]pyrazin-3-yl)-2-fluorobenzamide] | 7.77 |
| Cn1nccc1CNc1nc(-c2ccccc2CO)cn2c(-c3ccc(C(=O)NC4CC4)c(F)c3)cnc12 [Example 1-121, N-cyclopropyl-2-fluoro-4-(6-[2-(hydroxymethyl)phenyl]-8-{[(1-methyl-1H-pyrazol-5-yl)methyl]amino}imidazo[1,2-a]pyrazin-3-yl)benzamide] | 7.95 |
| Cc1cc(-c2cnc3c(NCCC(F)(F)F)nc(-c4cccc(CO)c4)cn23)ccc1C(=O)NC1CC1 [Example 1-122, N-cyclopropyl-4-{6-[3-(hydroxymethyl)phenyl]-8-[(3,3,3-trifluoropropyl)amino]imidazo[1,2-a]pyrazin-3-yl}-2-methyl-benzamide] | 7.92 |
| Cc1cc(-c2cnc3c(NCCC(F)(F)F)nc(-c4ccc(CO)cc4)cn23)ccc1C(=O)NC1CC1 [Example 1-123, N-cyclopropyl-4-{6-[4-(hydroxymethyl)phenyl]-8-[(3,3,3-trifluoropropyl)amino]imidazo[1,2-a]pyrazin-3-yl}-2-methyl-benzamide] | 8.92 |
| Cc1cc(-c2cnc3c(NCCC(F)(F)F)nc(-c4ccc(F)c(CO)c4)cn23)ccc1C(=O)NC1CC1 [Example 1-124, N-cyclopropyl-4-{6-[4-fluoro-3-(hydroxymethyl)phenyl]-8-[(3,3,3-tri-fluoropropyl)amino]imidazo[1,2-a]pyrazin-3-yl}-2-methylbenzamide] | 8.96 |
| CC(C)(O)CNc1nc(-c2ccccc2)cn2c(-c3ccc(C(=O)NC4CC4)cc3)cnc12 [Example 1-125, N-cyclopropyl-4-{8-[(2-hydroxy-2-methylpropyl)amino]-6-phenylimidazo[1,2-a]pyrazin-3-yl}benzamide] | 8.96 |
| CC(C)CNc1nc(-c2ccc(S(=O)(=O)NC3CC3)cc2)cn2c(-c3ccc(C(=O)NC4CC4)cc3)cnc12 [Example 1-126, N-cyclopropyl-4-{6-[4-(cyclopropylsulfamoyl)phenyl]-8-[(2-methylpropyl)amino]imidazo[1,2-a]pyrazin-3-yl}benzamide] | 8.36 |
| CC(C)CNc1nc(-c2ccc(SC3CC3)cc2)cn2c(-c3ccc(C(=O)NC4CC4)cc3)cnc12 [Example 1-127, N-cyclopropyl-4-{6-[4-(cyclopropylsulfanyl)phenyl]-8-[(2-methylpropyl)amino]imidazo[1,2-a]pyrazin-3-yl} benzamide] | 7.49 |
| O=C(NC1CC1)c1ccc(-c2cnc3c(NCC4CCCCC4)nc(-c4cccc5ncccc45)cn23)cc1 [Example 1-128, 4-{8-[(cyclohexylmethyl)amino]-6-(quinolin-5-yl)imidazo[1,2-a]pyrazin-3-yl}-N-cyclopropylbenzamide] | 8.92 |
| CC(C)CNc1nc(-c2cccc(S(N)(=O)=O)c2)cn2c(-c3ccc(C(=O)NC4CC4)cc3)cnc12 [Example 1-129, N-cyclopropyl-4-[8-(isobutylamino)-6-(3-sulfamoylphenyl)imidazo [1,2-a]pyrazin-3-yl] benzamide] | 8.72 |
| CC(C)CNc1nc(-c2cccc(S(=O)(=O)N3CCOCC3)c2)cn2c(-c3ccc(C(=O)NC4CC4)cc3)cnc12 [Example 1-130, N-cyclopropyl-4-{8-(isobutylamino)-6-[3-(morpholin-4-ylsulfonyl)phenyl]imidazo[1,2-a]pyrazin-3-yl}benzamide] | 8.17 |
| CC(C)(O)CNc1nc(-c2ccc(F)cc2)cn2c(-c3ccc(C(=O)NC4CC4)cc3)cnc12 [Example 1-131, N-cyclopropyl-4-{6-(4-fluorophenyl)-8-[(2-hydroxy-2-methylpropyl)amino]imidazo[1,2-a]pyrazin-3-yl}benzamide] | 8.80 |
| CC(C)(O)CNc1nc(-c2ccccc2CO)cn2c(-c3ccc(C(=O)NC4CC4)cc3)cnc12 [Example 1-132, N-cyclopropyl-4-{6-[2-(hydroxymethyl)phenyl]-8-[(2-hydroxy-2-methylpropyl)amino]imidazo[1,2-a]pyrazin-3-yl}benzamide] | 7.99 |
| CC(C)(O)CNc1nc(-c2cc(F)c(F)cc2F)cn2c(-c3ccc(C(=O)NC4CC4)cc3)cnc12 [Example 1-133, N-cyclopropyl-4-{8-[(2-hydroxy-2-methylpropyl)amino]-6-(2,4,5-trifluoro-phenyl)imidazo[1,2-a]pyrazin-3-yl}benzamide] | 8.21 |
| CC(C)(O)CNc1nc(-c2cc(F)c(F)c(F)c2)cn2c(-c3ccc(C(=O)NC4CC4)cc3)cnc12 [Example 1-134, N-cyclopropyl-4-{8-[(2-hydroxy-2-methyl-propyl)amino]-6-(3,4,5-trifluorophenyl)imidazo[1,2-a]pyrazin-3-yl} benzamide] | 7.50 |
| Cc1cc(-c2cn3c(-c4ccc(C(=O)NC5CC5)cc4)cnc3c(NCC(C)(C)O)n2)ccc1F [Example 1-135, N-cyclopropyl-4-{6-(4-fluoro-3-methylphenyl)-8-[(2-hydroxy-2-methylpropyl)amino]imidazo [1,2-a]pyrazin-3-yl} benzamide] | 8.08 |
| Cc1cc(-c2cnc3c(NCC(C)(C)O)nc(-c4ccc(F)cc4)cn23)ccc1C(=O)NC1CC1 [Example 1-136, N-cyclopropyl-4-{6-(4-fluorophenyl)-8-[(2-hydroxy-2-methylpropyl)amino]imidazo[1,2-a]pyrazin-3-yl}-2-methylbenzamide] | 8.10 |
| Cc1cc(-c2cnc3c(NCC(C)(C)O)nc(-c4ccccc4)cn23)ccc1C(=O)NC1CC1 [Example 1-137, N-cyclopropyl-4-{8-[(2-hydroxy-2-methylpropyl)amino]-6-phenylimidazo[1,2-a]pyrazin-3-yl}-2-methylbenzamide] | 8.29 |
